From BigSolDB 2.1

C=C1CC[C@H](O)C/C1=C/C=C1\CCC[C@]2(C)[C@@H]([C@H](C)CCCC(C)C)CC[C@@H]12
solubility (mole fraction)
Details	in DMSO	in ethanol	in ethyl acetate	in ethylene glycol	in isopropanol	in n-butanol	in propylene glycol	in sec-butanol	in transcutol	in water
273.2 K	0.0041	0.136	0.0904	0.000113	0.19	0.151	0.00142	0.154	0.369	1.87e-07
278.2 K	0.00469	0.144	0.109	0.000161	0.202	0.157	0.00176	0.161	0.375	2.9e-07
283.2 K	0.00533	0.153	0.131	0.000234	0.215	0.163	0.00209	0.168	0.382	4.22e-07
288.2 K	0.00601	0.162	0.15	0.000318	0.225	0.169	0.00249	0.176	0.39	5.67e-07
298.2 K	0.00723	0.177	0.195	0.000524	0.245	0.169	0.00337	0.187	0.403	1.03e-06

Details	solubility (mole fraction)
in PEG-400, 273.2 K	0.0135
in PEG-400, 278.2 K	0.0162
in PEG-400, 283.2 K	0.0191
in PEG-400, 288.2 K	0.0222
in PEG-400, 298.2 K	0.0291
